Data as given in publication PMC4279419, “Angiostatic, tumor inflammatory and anti-tumor effects of CXCL4^47–70 and CXCL4L1^47–70 in an EGF-dependent breast cancer model” (Oncotarget, 2014).
Where no end group is shown, it is not given here.

What was measured:
[1] = tested on: bovine aortic endothelial cells (GM7373); assay: GM7373 proliferation assay (cell counting); format: cell-based; conditions: peptide 0.4 μg/ml, 0.4% FCS, 24 h, cell counts, mean ± s.e.m., n=3; for GM7373 proliferation relative to EGF alone (100%): EGF 10 ng/ml; for GM7373 proliferation relative to FGF2 alone (100%): FGF2 10 ng/ml
Procedure: Cell proliferation assays on GM7373 cells were performed as described. Briefly, subconfluent cultures of GM7373 cells were seeded in 96-well dishes at 65 × 10^3 cells/cm^2. After 16 h, cells were incubated in triplicate in fresh medium containing 0.4% FCS plus FGF1 (30 ng/ml), FGF2 (10 ng/ml), FGF8 (30 ng/ml), EGF (10 ng/ml), VEGF (30 ng/ml), 12-O-tetradecanoyl phorbol 13-acetate (TPA, 10 ng/ml) or 10% FCS in the absence or in the presence of 400 ng/ml of CXCL4^47–70 or CXCL4L1^47–70. After 24 h, cells were trypsinized and counted in a Bürker chamber. Data were expressed as percentages of cell proliferation measured in the presence of the mitogenic stimulus alone.

[2] = tested on: human retinal microvascular endothelial cells (HMVEC); assay: HMVEC MTT proliferation assay; format: cell-based; conditions: control PI=1, 3 to 4 days, MTT, mean ± s.e.m.; for Proliferation index (PI), baseline (single stimulus): no growth factor
Procedure: (§1) First, HMVEC and HLEC were seeded at 5 × 10^3 cells/well in EBM-2 + 1% FCS in a 96-well plate, whereas MDA-MB-231 were starved of growth factors overnight by replacing their growth medium with DMEM (serum-free) prior to seeding the tumor cells at 15 × 10^2 cells/well in DMEM + 1% FCS. As for the rest of the assay, the same protocol applies to all cells. Once adherent, cells were incubated with different concentrations of the peptides CXCL4^47–70 and CXCL4L1^47–70 as single stimuli or in combination with recombinant human EGF (3 ng/ml; R&D Systems, Minneapolis, MN) at 37°C/5% CO2. All conditions were tested in triplicate or quadruplicate. After 3 to 4 days, stimulation medium was removed and a sterile MTT solution was added [0.04 g/100 ml thiazolyl blue (Sigma-Aldrich, St. Louis, MO) in 20% PBS/80% RPMI without phenol red (Lonza)] for 3 to 4 hours. The formed formasan crystals were dissolved by replacing the MTT solution with acidic propanol (0.04 M HCl, 0.1% (v/v) Nondet P-40 in absolute isopropanol) and shaking the plate, shielded from light, for 10 minutes. Optical density (OD) was determined at 570 nm and 630 nm. The obtained ODs were processed to proliferation indexes (PI), expressed relative to appropriate buffer controls, i.e. ΔOD570–630X over ΔOD570–630CO.

MDA-MB-231 cells = assay: MDA-MB-231 MTT proliferation assay; format: cell-based, human; conditions: control PI=1, DMEM + 1% FCS, 3 to 4 days, mean ± s.e.m.
Procedure: as §1

[3] = tested on: CD31-positive vessels of MDA-MB-231 tumors; assay: CD31 immunohistochemistry of resected tumors (vascularization); format: in vivo, mice; conditions: 2.5 μg intratumoral 3×/week; data not shown
Procedure: The impact of peptide treatment on the tumor vasculature was evaluated by quantification of immunohistochemically stained CD31-positive vessels. […] This inconsistency between our observations in vitro and in vivo evokes the question which alternative mechanisms may contribute to the anti-tumoral impact of peptide treatment as evidenced in the MDA-MB-231 tumor model.

CHO/CXCR3A cells = assay: CXCR3A binding (flow cytometry); conditions: NH2-terminally biotinylated peptides, 3 to 3000 ng/ml, data not shown
Description: We further tried to reveal the mode of action of CXCL4^47–70 and CXCL4L1^47–70. First, we excluded that either peptide still binds/activates one of the CXCR3 isoforms, the receptors for intact CXCL4 and CXCL4L1.

EGF = EGF binding (heterodimerization) assay in 96-well plates; parameters: species or system human; conditions: amino-terminally biotinylated peptides; 37 °C; 2 μg/ml EGF coated; OD450; n=3
Procedure: GAG, EGF and CCL5 binding were quantified in 96-well plates following a similar protocol. GAG binding was evaluated by immobilizing low molecular weight heparin (Iduron, Manchester, UK) on EpranEx plates (BD Biosciences), whereas EGF as well as CCL5 recombinant human protein (R&D Systems and PeproTech, respectively) was immobilized on high protein-binding ELISA plates (Corning life sciences, Tewksbury, MA). In brief, 25 μg/ml GAG [diluted in assay buffer 100 mM NaCl, 50 mM NaAc, pH 7.2, and 0.2% (v/v) Tween-20], 2 μg/ml EGF or 50 ng/ml CCL5 (both diluted in PBS), was coated overnight at room temperature on 96-well plates. Plates were washed three times with either assay buffer or 0.5% (v/v) Tween 20 in PBS and blocked at 37°C with buffer enriched with either 0.2% (w/v) gelatin (heparin binding assay) or 0.1% (w/v) casein (EGF or CCL5 binding assay). Subsequently, a dilution curve of biotinylated CXCL4L1^47–70 and CXCL4^47–70 peptide was pipetted on the plate and incubated at 37 °C to allow interaction with heparin, EGF or CCL5. After washing, retained biotinylated peptide was detected by peroxidase-conjugated streptavidin. Peroxidase activity was quantified by measuring the conversion of 3,3′,5,5′-tetramethylbenzidine (Sigma-Aldrich) at 450 nm.

endothelial cell = conditions: cited from earlier work
Procedure: We investigated whether CXCL4^47–70 and CXCL4L1^47–70 counteracted other growth factors with similar efficiency. Consistent with previous work, both CXCL4^47–70 and CXCL4L1^47–70 (0.4 μg/ml) reduced FGF2-induced GM7373 prolifera ...

[4] = peptide 0.3 μg/ml + EGF 3 ng/ml, n=7, p=0.015 (CXCL4^47–70), p=0.041 (CXCL4L1^47–70) versus EGF
[5] = peptide 1 μg/ml + EGF 3 ng/ml, n=7, p=0.003 (CXCL4^47–70), p=0.015 (CXCL4L1^47–70) versus EGF
[6] = peptide 1 μg/ml, n=8, p=0.011 (CXCL4^47–70), p=0.043 (CXCL4L1^47–70)
[7] = peptide 3 μg/ml + EGF 3 ng/ml, n=6, p=0.008 (CXCL4^47–70), n=7, p=0.041 (CXCL4L1^47–70) versus EGF
[8] = peptide 3 μg/ml, n=6, p=0.001 (CXCL4^47–70), n=7, p=0.009 (CXCL4L1^47–70)
[9] = peptide 3 μg/ml, n=7 in triplicate, p<0.001
[10] = peptide 10 μg/ml, in triplicate, n=3, p<0.001 (CXCL4^47–70), n=7, p=0.01 (CXCL4L1^47–70)

Substance | GM7373 proliferation relative to EGF alone (100%) [1] [%] | GM7373 proliferation relative to FGF2 alone (100%) [1] [%] | Proliferation index (PI), EGF-stimulated [2, 4] | Proliferation index (PI), EGF-stimulated [2, 5] | Proliferation index (PI), baseline (single stimulus) [2, 6] | Proliferation index (PI), EGF-stimulated [2, 7] | Proliferation index (PI), baseline (single stimulus) [2, 8] | Proliferation index (PI) (MDA-MB-231 cells; [9]) | Proliferation index (PI) (MDA-MB-231 cells; [10]) | Proliferation index (PI) (MDA-MB-231 cells; peptide 30 μg/ml, n=3 in triplicate, p<0.001) | vascularization of resected tumors (CD31-positive vessels) [3] | specific binding to CHO/CXCR3A (CHO/CXCR3A cells) | binding to EGF-coated plate (EGF) | block of FGF2-induced endothelial cell motility and proliferation (endothelial cell) | Proliferation index (PI) (MDA-MB-231 cells; peptide 0.3 μg/ml, n=7 in triplicate, p=0.023)
CXCL4L1^47–70: synthetic human carboxy-terminal peptide restricted to the last 24 amino acids of CXCL4L1, Fmoc chemistry | 49 ± 1 | 47 ± 4 | 1.17 ± 0.06 | 1.05 ± 0.07 | 0.86 ± 0.12 | 0.98 ± 0.13 | 0.70 ± 0.09 | 0.78 ± 0.04 | 0.76 ± 0.08 | 0.26 ± 0.04 | neither CXCL4^47–70, nor CXCL4L1^47–70 was reflected by a reduced vascularization | could not detect specific binding | equally well in a dose-dependent manner | retained the ability to block FGF2-induced endothelial cell motility and proliferation | –
CXCL4^47–70: synthetic human carboxy-terminal peptide restricted to the last 24 amino acids of CXCL4, Fmoc chemistry (NGRKICLDLQAPLYKKIIKKLLES; not fully specified (N-terminus)) | 74 ± 3 | 28 ± 10 | 1.13 ± 0.07 | 0.96 ± 0.06 | 0.77 ± 0.08 | 0.93 ± 0.07 | 0.59 ± 0.09 | 0.66 ± 0.04 | 0.21 ± 0.05 | – | neither CXCL4^47–70, nor CXCL4L1^47–70 was reflected by a reduced vascularization | could not detect specific binding | equally well in a dose-dependent manner | retained the ability to block FGF2-induced endothelial cell motility and proliferation | 0.87 ± 0.04
